Data on 1 compound can be found in ChEMBL document CHEMBL1136964, “Nicotinic agonist binding site mapped by methionine- and tyrosine-scanning coupled with azidochloropyridinyl photoaffinity labeling” (J Med Chem, 2009).

What all share (assay type): cell-based
For test [1], the system named is HEK293S. Put plainly: Binding affinity to Aplysia californica AchBP M116L,Y195F mutant expressed in HEK293S cells assessed as specific photoincorporation at 46 pmol by scintillation counting relative to wild type.
Test [2] deals with HEK293S. Put plainly: Binding affinity to Aplysia californica AchBP V108M, M116L, Y195F mutant expressed in HEK293S cells assessed as specific photoincorporation at 46 pmol by scintillation counting.
Test [3] can be described thus: Binding affinity to Aplysia californica AchBP M116Y mutant expressed in HEK293S cells by scintillation proximity assay. (SPA uses beads or plates that emit light when radiolabelled molecules are held near them.)
Test [4] deals with HEK293S. As to the kind of experiment: Binding affinity to Aplysia californica AchBP V108M mutant expressed in HEK293S cells assessed as specific photoincorporation at 46 pmol by scintillation counting.
The test system of test [5] is HEK293S. As to the kind of experiment: Binding affinity to Aplysia californica AchBP I106M, M116L, Y195F mutant expressed in HEK293S cells assessed as specific photoincorporation at 46 pmol by scintillation counting.
In test [6] the test system is HEK293S. As to the kind of experiment: Binding affinity to Aplysia californica AchBP M116Y mutant expressed in HEK293S cells assessed as specific photoincorporation at 46 pmol by scintillation counting.
Test [7] relates to HEK293S. As to the kind of experiment: Binding affinity to Aplysia californica AchBP A107M, M116L mutant expressed in HEK293S cells assessed as specific photoincorporation at 46 pmol by scintillation counting.
The subject of test [8] is HEK293S. Put plainly: Binding affinity to Aplysia californica AchBP Y195F mutant expressed in HEK293S cells assessed as specific photoincorporation at 46 pmol by scintillation counting.
The test system of test [9] is HEK293S. As to the kind of experiment: Binding affinity to Aplysia californica AchBP M116Y, Y195F mutant expressed in HEK293S cells assessed as specific photoincorporation at 46 pmol by scintillation counting.
In test [10] the test system is HEK293S. As to the kind of experiment: Binding affinity to Aplysia californica AchBP A107M mutant expressed in HEK293S cells assessed as specific photoincorporation at 46 pmol by scintillation counting.
Test [11] in a line: Binding affinity to Aplysia californica AchBP V108M, M116L, Y195F mutant expressed in HEK293S cells by scintillation proximity assay.
The subject of test [12] is HEK293S. Put plainly: Binding affinity to Aplysia californica AchBP V108M, M116L, Y195F mutant expressed in HEK293S cells assessed as specific photoincorporation at 46 pmol by scintillation counting relative to wild type.
A short description of test [13]: Binding affinity to Aplysia californica AchBP M116L mutant expressed in HEK293S cells by scintillation proximity assay.
Test [14] is described as follows: Binding affinity to Aplysia californica AchBP I106M, M116L mutant expressed in HEK293S cells by scintillation proximity assay.
Test [15] relates to HEK293S. As to the kind of experiment: Binding affinity to Aplysia californica AchBP S114M, M116L mutant expressed in HEK293S cells assessed as specific photoincorporation at 46 pmol by scintillation counting relative to wild type.
The nature of test [16]: Binding affinity to wild type Aplysia californica AchBP expressed in HEK293S cells by scintillation proximity assay.
Test [17] relates to HEK293S. Put plainly: Binding affinity to Aplysia californica AchBP M116Y mutant expressed in HEK293S cells assessed as specific photoincorporation at 46 pmol by scintillation counting relative to wild type.
Test [18] can be described thus: Binding affinity to Aplysia californica AchBP M116L,Y195F mutant expressed in HEK293S cells by scintillation proximity assay.

Structures are written as SMILES. pKd: −log10 of the molar value.

As to `Clc1ccc(C2CC3CCC2N3)cn1` (racemic) [EPIBATIDINE], the Activity in the test with HEK293S [1] turned out to be 6.9%; in the test on HEK293S [2] it was 0%; in the test with HEK293S [4], 9.5%; with HEK293S [5] it was 3.7%; in the test with HEK293S [6], 17%; with HEK293S [7], 29%. Also, the Activity with HEK293S [8] came out at 1%; with HEK293S [9], 8.7%; in the test on HEK293S [10] it was 27%; with HEK293S [12], 0%; with HEK293S [15], 66%; with HEK293S [17], 59%. The negative-log Kd (pKd) in test [3] is 7.24; in test [11], 8.54; in [13] it was 8.05; in test [14], 7.92; in [16], 8.07; in test [18], 7.66.

As a reminder, the pKd is the Kd on a negative log10 scale, so that one unit is a factor of ten.
